# Assay results: patent publication US6849641B1, “Azaindole tyrosine kinase inhibitors” (Sugen, Inc., priority 1997, dated 2005)
# pIC50: −log10 of the molar value.
# Assays:
# FLK-1 receptor = target: T1, FLK-1 receptor (Mus musculus, UniProt P35918); assay: FLK-1 ELISA (kinase activity of the FLK-1 receptor in cells engineered to express Flk-1); type: cell-based; conditions: NIH3T3 C7#3 cells (FLK-1 expressing), VEGF stimulated
# T1 construct: expressed in transfected cells; host or cells: NIH3T3 C7#3 cells
# T1 sequence (P35918 20-1345): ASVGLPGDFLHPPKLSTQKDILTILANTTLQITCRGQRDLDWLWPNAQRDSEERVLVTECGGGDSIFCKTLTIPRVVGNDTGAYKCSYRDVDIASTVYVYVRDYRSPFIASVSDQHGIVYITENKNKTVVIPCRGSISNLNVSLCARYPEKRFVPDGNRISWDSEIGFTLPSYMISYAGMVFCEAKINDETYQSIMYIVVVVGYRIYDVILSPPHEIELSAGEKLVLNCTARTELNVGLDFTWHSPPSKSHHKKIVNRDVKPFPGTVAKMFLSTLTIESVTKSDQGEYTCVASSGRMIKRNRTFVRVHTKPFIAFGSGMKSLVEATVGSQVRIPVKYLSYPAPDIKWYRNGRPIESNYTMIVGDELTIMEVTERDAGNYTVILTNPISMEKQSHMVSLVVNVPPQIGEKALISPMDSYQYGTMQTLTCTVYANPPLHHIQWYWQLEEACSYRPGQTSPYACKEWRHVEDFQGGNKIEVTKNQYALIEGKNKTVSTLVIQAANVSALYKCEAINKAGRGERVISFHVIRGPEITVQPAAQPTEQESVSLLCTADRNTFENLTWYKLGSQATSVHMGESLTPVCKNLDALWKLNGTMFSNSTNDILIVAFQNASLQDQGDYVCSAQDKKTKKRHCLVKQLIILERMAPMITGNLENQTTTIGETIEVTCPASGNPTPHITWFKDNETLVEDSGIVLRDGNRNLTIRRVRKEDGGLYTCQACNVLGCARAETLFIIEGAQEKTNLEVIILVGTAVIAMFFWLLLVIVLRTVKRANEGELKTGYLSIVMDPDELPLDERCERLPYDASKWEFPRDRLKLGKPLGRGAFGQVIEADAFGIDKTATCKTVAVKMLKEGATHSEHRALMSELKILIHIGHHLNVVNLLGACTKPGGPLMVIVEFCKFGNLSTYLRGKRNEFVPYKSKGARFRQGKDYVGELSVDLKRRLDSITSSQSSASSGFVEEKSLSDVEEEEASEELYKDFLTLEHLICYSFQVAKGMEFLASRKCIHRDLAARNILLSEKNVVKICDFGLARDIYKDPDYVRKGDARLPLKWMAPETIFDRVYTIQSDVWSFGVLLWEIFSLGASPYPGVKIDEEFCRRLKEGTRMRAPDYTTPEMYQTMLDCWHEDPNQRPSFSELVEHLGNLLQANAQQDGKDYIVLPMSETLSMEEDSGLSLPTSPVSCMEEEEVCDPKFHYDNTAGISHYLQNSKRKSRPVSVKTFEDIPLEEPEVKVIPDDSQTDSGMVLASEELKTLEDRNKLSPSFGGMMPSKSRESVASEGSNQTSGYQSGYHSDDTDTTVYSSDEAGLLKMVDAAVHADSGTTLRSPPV
# Method: An ELISA assay is conducted to measure the kinase activity of the FLK-1 receptor and more specifically, the inhibition or activation of TK activity on the FLK-1 receptor. Specifically, the following assay can be conducted to measure kinase activity of the FLK-1 receptor in cells genetically engineered to express Flk-1.
# Materials. The following reagents and supplies are used: • a. Corning 96-well ELISA plates (Corning Catalog No. 25805-96); • b. Cappel goat anti-rabbit IgG (catalog no. 55641); • c. PBS (Gibco Catalog No. 450-1300EB); • d. TBSW Buffer (50 mM Tris (pH 7.2), 150 mM NaCl and 0.1% Tween-20); • e. Ethanolamine stock (10% ethanolamine (pH 7.0), stored at 4° C.); • f. HNTG buffer (20 mM HEPES buffer (pH 7.5), 150 mM NaCl, 0.2% Triton X-100, and 10% glycerol); • g. EDTA (0.5 M (pH 7.0) as a 100× stock); • h. Sodium orthovanadate (0.5 M as a 100× stock); • i. Sodium pyrophosphate (0.2 M as a 100× stock); • j. NUNC 96 well V bottom polypropylene plates (Applied Scientific Catalog No. AS-72092); • k. NIH3T3 C7#3 Cells (FLK-1 expressing cells); • l. DMEM with 1× high glucose L-Glutamine (catalog No. 11965-050); • m. FBS, Gibco (catalog no. 16000-028); • n. L-glutamine, Gibco (catalog no. 25030-016); • o. VEGF, PeproTech, Inc. (catalog no. 100-20)(kept as 1 μg/100 μL stock in Milli-Q dH2O and stored at −20° C.; • p. Affinity purified anti-FLK-1 antiserum; • q. UB40 monoclonal antibody specific for phosphotyrosine (see, Fendley, et al., 1990, Cancer Research50:1550-1558); • r. EIA grade Goat anti-mouse IgG-POD (BioRad catalog no. 172-1011); • s. 2,2-azino-bis(3-ethylbenz-thiazoline-6-sulfonic acid (ABTS) solution (100 mM citric acid (anhydrous), 250 mM Na2HPO4 (pH 4.0), 0.5 mg/mL ABTS (Sigma catalog no. A-1888)), solution should be stored in dark at 4° C. until ready for use; • t. H2O2 (30% solution) (Fisher catalog no. H325); • u. ABTS/H2O2 (15mL ABTS solution, 2 μL H2O2) prepared 5 minutes before use and left at room temperature; • v. 0.2 M HCl stock in H2O; • w. dimethylsulfoxide (100%)(Sigma Catalog No. D-8418); and • y. Trypsin-EDTA (Gibco BRL Catalog No. 25200-049).
# Protocol. The following protocol can be used for conducting the assay:
# 1. Coat Corning 96-well ELISA plates with 1.0 μg per well Cappel Anti-rabbit IgG antibody in 0.1 M Na2CO3 pH 9.6. Bring final volume to 150 μL per well. Coat plates overnight at 4° C. Plates can be kept up to two weeks when stored at 4° C.
# 2. Grow cells in Growth media (DMEM, supplemented with 2.0 mM L-Glutamine, 10% FBS) in suitable culture dishes until confluent at 37° C., 5% CO2.
# 3. Harvest cells by trypsinization and seed in Corning 25850 polystyrene 96-well round bottom cell plates, 25.000 cells/well in 200 μL of growth media.
# 4. Grow cells at least one day at 37° C., 5% CO2.
# 5. Wash cells with D-PBS 1×.
# 6. […]
# human EGF-R = target: T2, human EGF-R (Homo sapiens, UniProt P00533); assay: EGF Receptor ELISA (EGF receptor kinase activity in cells engineered to express human EGF-R); type: cell-based; conditions: NIH 3T3/C7 cell line, EGF stimulated
# T2 construct: expressed in transfected cells; host or cells: NIH 3T3/C7 cell line
# T2 sequence (P00533 25-1210): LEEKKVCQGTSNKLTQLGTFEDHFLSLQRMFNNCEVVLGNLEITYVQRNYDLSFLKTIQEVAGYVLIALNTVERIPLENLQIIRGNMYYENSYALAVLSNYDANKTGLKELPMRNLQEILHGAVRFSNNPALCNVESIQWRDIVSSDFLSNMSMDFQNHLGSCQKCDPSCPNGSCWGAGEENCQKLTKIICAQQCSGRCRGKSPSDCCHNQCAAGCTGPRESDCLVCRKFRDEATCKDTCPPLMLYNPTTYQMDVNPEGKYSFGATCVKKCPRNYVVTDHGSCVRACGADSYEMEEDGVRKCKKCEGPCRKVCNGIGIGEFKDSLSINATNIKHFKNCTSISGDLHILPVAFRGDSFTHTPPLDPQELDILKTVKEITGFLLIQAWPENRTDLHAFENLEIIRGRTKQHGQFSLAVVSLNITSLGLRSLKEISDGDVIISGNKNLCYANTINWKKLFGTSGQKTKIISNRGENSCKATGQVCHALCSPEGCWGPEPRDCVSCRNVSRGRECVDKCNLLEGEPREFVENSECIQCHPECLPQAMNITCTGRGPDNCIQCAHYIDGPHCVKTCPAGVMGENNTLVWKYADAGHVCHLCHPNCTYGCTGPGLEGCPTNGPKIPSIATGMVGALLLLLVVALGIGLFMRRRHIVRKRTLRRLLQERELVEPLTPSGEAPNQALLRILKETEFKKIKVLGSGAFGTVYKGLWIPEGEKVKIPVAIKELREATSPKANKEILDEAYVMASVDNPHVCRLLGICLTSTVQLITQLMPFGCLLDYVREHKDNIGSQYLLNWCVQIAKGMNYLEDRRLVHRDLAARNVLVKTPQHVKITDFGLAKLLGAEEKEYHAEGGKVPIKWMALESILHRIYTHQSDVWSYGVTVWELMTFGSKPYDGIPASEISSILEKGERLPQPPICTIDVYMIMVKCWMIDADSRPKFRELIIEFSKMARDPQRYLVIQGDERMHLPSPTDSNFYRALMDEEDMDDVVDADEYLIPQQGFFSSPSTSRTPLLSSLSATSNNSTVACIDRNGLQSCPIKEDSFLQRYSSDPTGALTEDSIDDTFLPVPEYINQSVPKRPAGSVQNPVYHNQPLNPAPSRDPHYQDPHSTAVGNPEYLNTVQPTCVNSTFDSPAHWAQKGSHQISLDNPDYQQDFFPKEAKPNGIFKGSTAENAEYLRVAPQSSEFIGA
# Method: EGF Receptor kinase activity in cells genetically engineered to express human EGF-R can be measured as described below:
# Materiala and Reagents. The following materials and reagents are used
# a. EGF Ligand: stock concentration=16.5 μM; EGF 201, TOYOBO, Co., Ltd. Japan.
# b. 05-101 (UBI) (a monoclonal antibody recognizing an EGFR extracellular domain).
# C. Anti-phosphotyosine antibody (anti-Ptyr) (polyclonal).
# d. Detection antibody: Goat anti-rabbit lgG horse radish peroxidase conjugate, TAGO, Inc., Burlingame, Calif.
# h. Stock reagents of: • EDTA 100 mM pR 7.0 • Na3VO4 0.5 M • Na4(P2O7) 0.2 M
# Procedure. The following protocol is used:
# 1. Coat ELISA plates (Corning, 96 well, Cat. #25805-96) with 05-101 antibody at 0.5 μg per well in PBS, 150 μL final volume/well, and store overnight at 4° C. Coated plates are good for up to 10 days when stored at 4° C.
# 2. On day of use, remove coating buffer and replace with blocking buffer (5% Carnation Instant NonFat Dry Milk in PBS). Incubate the plate, shaking, at room temperature (about 23° C. to 25° C) for 30 minutes. Just prior to use, remove blocking buffer and wash plate 4 times with TBST buffer.
# 1. NIH 3T3/C7 cell line (Honegger, et al., Cell 51:199-209, 1987) can be use for this assay.
# 2. Choose dishes having 80-90% confluence for the experiment. Trypsinize cells and stop reaction by adding 10% CS DMEM medium. Suspend cells in DMEM medium (10% CS DMEM medium) and centrifuge once at 1000 rpm at room temperature for 5 minutes.
# 3. Resuspend cells in seeding medium (DMEM, 0.5% bovine serum), and count the cells using trypan blue. Viability above 90% is acceptable. Seed cells in DMEM medium (0.5% bovine serum) at a density of 10,000 cells per well, 100 μL per well, in a 96 well microtiter plate. Incubate seeded cells in 5% CO2 at 37° C. for about 40 hours.
# 1. Check seeded cells for contamination using an inverted microscope. Dilute drug stock (10 mg/mL in DMSO) 1:10 in DMEM medium, then transfer 5 μL to a test well for a final drug dilution of 1:200 and a final DMSO concentration of 1%. Control wells receive DMSO alone. Incubate in 5% CO2 at 37° C. for one hour.
# 2. Prepare EGF ligand: dilute stock EGF in DMEM so that upon transfer of 10 μL dilute EGF (1:12 dilution), 25 nM final concentration is attained.
# 3. Prepare fresh 10 mL HNTG* sufficient for 100 μL per well wherein HNTG* comprises: HNTG stock (2.0 mL), milli-Q H2O (7.3 mL), EDTA, 100 mM, pH 7.0 (0.5 mL), Na3VO4 0.5 M (0.1 mL) and Na4(P2O7), 0.2 M (0.1 mL).
# 5. After two hours incubation with drug, add prepared EGF ligand to cells, 10 μL per well, to yield a final concentration of 25 nM. Control wells receive DMEM alone. Incubate, shaking, at room temperature, for 5 minutes.
# 6. Remove drug, EGF, and DMEM. Wash cells twice with PBS. Transfer HNTG* to cells, 100 μL per well. Place on ice for 5 minutes. […]
SMILES,pIC50 (FLK-1 receptor),pIC50 (human EGF-R)
"Cc1cc(C)c(C=C2C(=O)Nc3ncccc32)[nH]1 [3-(3,5-dimethyl-1H-pyrrol-2-ylmethylene)-1,3-dihydro-pyrrolo[2,3-b]pyridin-2-one]",5.69,< 4.00
"O=C1Nc2ncccc2C1=Cc1cnc[nH]1 [3-(3H-imidazol-4-ylmethylene)-1,3-dihydro-pyrrolo[2,3-b]pyridin-2-one]",4.75,< 4.30
"Cc1c(CCC(=O)O)c[nH]c1C=C1C(=O)Nc2ncccc21 [3-[4-methyl-5-(2-oxo-1,2-dihydro-pyrrolo[2,3-b]pyridin-3-ylidenemethyl)-1H-pyrrol-3-yl]-propionic acid]",6.02,< 4.60
"Cc1[nH]c(C=C2C(=O)Nc3ncccc32)c(C)c1CCC(=O)O [3-[2,4-dimethyl-5-(2-oxo-1,2-dihydro-pyrrolo[2,3-b]pyridin-3-ylidenemethyl)-1H-pyrrol-3-yl]-propionic acid]",6.82,< 4.30
